Measured values from patent US8889671B2, “Compounds and methods for treating bacterial infections” (AstraZeneca AB, priority 2013, dated 2014).
Like-named read-outs stand apart in the source and are kept apart here.

Assays:
Staphylococcus aureus = test: Susceptibility testing (MIC) Assay 1, broth microdilution; assay type: cell-based; settings: Staphylococcus aureus
Experimental: (§1) Minimum Inhibitory Concentrations (MICs) were determined by the broth microdilution method in accordance with the Clinical and Laboratory Standards Institute (CLSI) guidelines. In brief, organism suspensions were adjusted to a 0.5 McFarland standard to yield a final inoculum between 3×10^5 and 7×10^5 colony-forming units (CFU)/mL. Bacterial inocula were prepared for most organisms in sterile, cation adjusted Mueller-Hinton Broth (Beckton Dickinson). The streptococci were prepared as above in cation adjusted Mueller-Hinton Broth to which 2.5% lysed horse blood (Hema Resource & Supply Inc.) was added. An inoculum volume of 100 μL was added to wells (using a Tecan EVO robot) containing 2 μL of DMSO containing 2-fold serial dilutions of drug. All inoculated microdilution trays were incubated in ambient air at 35° C. for 18-24 hours. Following incubation, the lowest concentration of the drug that prevented visible growth as read at OD600 nm and confirmed by a visual read using a test reading mirror was recorded as the MIC. Performance of the assay was monitored by the use of laboratory quality-control strains and commercially available control compounds with defined MIC spectrums, in accordance with CLSI guidelines. Table 1 provides the MIC results (μM) of Examples 1-77 tested in Assay 1. Table 2 provides the MIC (μg/mL) results of Examples 78-80 tested in Assay 1.

Streptococcus pneumoniae = test: as above; assay type: cell-based
Experimental: as §1

Streptococcus pyogenes = test: as above; assay type: cell-based; settings: Streptococcus pyogenes, in vivo strain, read-out: Spy MIC
Experimental: as §1

Escherichia coli = test: Susceptibility testing (MIC) Assay 2, broth microdilution; assay type: cell-based
Experimental: (§2) Minimum Inhibitory Concentrations (MICs) were determined by the broth microdilution method in accordance with the Clinical and Laboratory Standards Institute (CLSI) guidelines. In brief, organism suspensions were adjusted to a 0.5 McFarland standard to yield a final inoculum between 3×10^5 and 7×10^5 colony-forming units (CFU)/mL. Bacterial inocula were generally prepared in sterile, cation adjusted Mueller-Hinton Broth (Becton Dickinson) which included Escherichia coli, Klebsiella pneumoniae, and Pseudomonas aeruginosa. Haemophilus influenzae bacterial inocula were prepared in sterile, cation adjusted Mueller-Hinton Broth (Becton Dickinson) containing 0.5% yeast extract (Becton Dickinson) plus 30 mL of 15 μg/mL Bovine Hematin stock (Sigma), and 3 mL of 15 μg/mL β-nicotinamide adenine dinucleotide (Sigma). Strains of Neisseria were tested for MICs using agar dilution methodology in accordance with CLSI guidelines. For broth microdilution testing, an inoculum volume of 100 μL was added to wells (using a Tecan EVO robot) containing 2 μL of DMSO containing 2-fold serial dilutions of drug. All inoculated microdilution panels were incubated in ambient air at 35° C. for 18-24 hours. Following incubation, the lowest concentration of the drug that prevented visible growth as read at OD600 nm and confirmed by a visual read using a test reading mirror was recorded as the MIC. Performance of the assay was monitored by the use of laboratory quality-control strains and commercially available control compounds with defined MIC spectrums, in accordance with CLSI guidelines. Table 3 provides the MIC results (μM) of Examples 1-77 tested in Assay 2. Table 4 provides the MIC (μg/mL) results of Examples 78-80 tested in Assay 2.

Haemophilus influenzae = test: as above; assay type: cell-based
Experimental: as §2

Klebsiella pneumoniae = test: as above; assay type: cell-based
Experimental: as §2

Pseudomonas aeruginosa = test: as above; assay type: cell-based; settings: PAO1, read-out: Pae MIC
Experimental: as §2

[1] = target: Escherichia coli DNA gyrase A/B tetramer (Escherichia coli (strain K12), UniProt P0AES4+P0AES6); test: DNA gyrase supercoiling activity fluorescence polarisation assay; assay type: biochemical; settings: Eco Gyr FP Mean IC50, E. coli DNA gyrase supercoiling, 0.3 mM ATP
Experimental: In a black, 384-well polystyrene assay plate, 30 microliters/well of 5 nM Escherichia coli DNA gyrase A/B tetramer and 130 micrograms/mL of topologically relaxed plasmid containing the triplex-forming sequence
in an assay buffer consisting of 35 mM Tris-HCl (pH 7.5), 24 mM KCl, 4 mM MgCl2, 2 mM dithiothreitol, 1.8 mM spermidine, 5% (v/v) glycerol, 200 nM bovine serum albumin, 0.8% dimethylsulfoxide, and 0.3 mM ATP were incubated at ambient temperature for (typically 30 minutes) in the absence or presence of 5-10 different concentrations of test compound. The supercoiling reactions were quenched by the addition of 10 microliters/well of 40 nM oligodeoxynucleotide probe in 3× triplex-forming buffer consisting of 150 mM NaCl, and 150 mM sodium acetate at pH 3.5. The oligodeoxynucleotide probe was 5′-BODIPY-FL-labeled
After 60 minutes, the fluorescence anisotropy of the BODIPY-FL was measured in a Tecan Ultra plate reader, using 485 nm excitation and 535 nm emission filters equipped with polarizers. The IC50 was determined by nonlinear regression using two control reactions.

[2] = in vivo strain, MRQR, read-out: Sau(e) MIC
[3] = Staphylococcus aureus in vivo strain, MSQS, read-out: Sau(d) MIC
[4] = in vivo strain (footnote b), read-out: Spn(b) MIC
[5] = in vivo strain (footnote c), read-out: Spn(c) MIC
[6] = ATCC51907, Haemophilus influenzae, ATCC 51907, in vivo strain, read-out: Hin MIC
[7] = clinical isolate, mucoid, read-out: Kpn MIC

Structure (SMILES) | MIC (Staphylococcus aureus; [2]) | IC50 [1] [nM] | MIC (Staphylococcus aureus; [3]) [µM] | MIC (Staphylococcus aureus; serum, read-out: Sau(f) MIC) [µM] | MIC (Streptococcus pneumoniae; [4]) [µM] | MIC (Streptococcus pneumoniae; [5]) [µM] | MIC (Streptococcus pyogenes; Streptococcus pyrgenes) [µM] | MIC (Escherichia coli; K12, read-out: Eco MIC) [µM] | MIC (Haemophilus influenzae; [6]) [µM] | MIC (Klebsiella pneumoniae; [7]) [µM] | MIC (Pseudomonas aeruginosa) [µM] | also measured
COC[C@@H]1[C@@H](C)OC(=O)N1c1noc2c(F)c3c(cc12)CC1(C(=O)NC(=O)NC1=O)[C@H]1[C@H](C)O[C@H](C)CN31 [Example 80, (2R,4S,4aS)-11-fluoro-8-((4R,5R)-4-(methoxymethyl)-5-methyl-2-oxooxazolidin-3-yl)-2,4-dimethyl-2,4,4a,6-tetrahydro-1H,1′H-spiro[isoxazolo[4,5-g][1,4]oxazino[4,3-a]quinoline-5,5′-pyrimidine]-2′,4′,6′(3′H)-trione] | 32 µg/mL | 170 |  |  |  |  |  |  |  |  |  | MIC (Staphylococcus aureus; ATCC29213, Staphylococcus aureus, in vivo strain, ATCC 29213, read-out: Sau(d) MIC): 16 µg/mL; MIC (Staphylococcus aureus; MRSA, in vivo strain, MRSA, read-out: Sau(f) MIC): 16 µg/mL; MIC (Streptococcus pneumoniae; ATCC49619, Streptococcus pneumoniae, ATCC 49619, read-out: Spn(c) MIC): 32 µg/mL; MIC (Streptococcus pneumoniae; in vivo strain, read-out: Spn(b) MIC): 64 µg/mL; MIC (Streptococcus pyogenes; Streptococcus pyrogenes): 16 µg/mL; MIC (Escherichia coli; ATCC25922, Escherichia coli, in vivo strain, ATCC 25922, read-out: Eco(b) MIC): > 64 µg/mL; MIC (Escherichia coli; ATCC35218, Escherichia coli, ATCC 35218, read-out: Eco(c) MIC): > 64 µg/mL; MIC (Haemophilus influenzae; ATCC49247, Haemophilus influenzae, ATCC 49247, read-out: Hin MIC): 1 µg/mL; MIC (Klebsiella pneumoniae; ATCC700603, ATCC 700603, read-out: Kpn(e) MIC): > 64 µg/mL; MIC (Klebsiella pneumoniae; clinical isolate, mucoid, read-out: Kpn(d) MIC): > 64 µg/mL; MIC (Pseudomonas aeruginosa; Pseudomonoas aeruginosa): > 64 µg/mL
C#C[C@H]1COC(=O)N1c1noc2c(F)c3c(cc12)CC1(C(=O)NC(=O)NC1=O)[C@H]1[C@H](C)O[C@H](C)CN31 [Example 65] | 1.6 µM | 120 | 0.39 | 1.6 | 0.78 | 1.6 | 0.78 | 3.1 | 0.78 | 200 | > 200 | 
C[C@@H]1CN2c3c(cc4c(N5C(=O)OC[C@H]5CF)noc4c3F)CC3(C(=O)NC(=O)NC3=O)[C@H]2[C@H](C)O1 [Example 16, (2R,4S,4aS)-11-Fluoro-8-[(4S)-4-(fluoromethyl)-2-oxo-1,3-oxazolidin-3-yl]-2,4-dimethyl-1,2,4,4a-tetrahydro-2′H,6H-spiro[1,4-oxazino[4,3-a][1,2]oxazolo[4,5-g]quinoline-5,5′-pyrimidine]-2′,4′,6′(1′H,3′H)-trione] | 1.6 µM | 190 | 0.39 | 1.6 | 0.39 | 0.39 | 0.39 | 25 | 0.78 | 200 | > 200 | 
C=CC[C@H]1COC(=O)N1c1noc2c(F)c3c(cc12)CC1(C(=O)NC(=O)NC1=O)[C@H]1[C@H](C)O[C@H](C)CN31 [Example 25, (2R,4S,4aS)-8-((S)-4-Allyl-2-oxooxazolidin-3-yl)-11-fluoro-2,4-dimethyl-2,4,4a,6-tetrahydro-1H,1′H-spiro[isoxazolo[4,5-g][1,4]oxazino[4,3-a]quinoline-5,5′-pyrimidine]-2′,4′,6′(3′H)-trione] | 0.39 µM | 260 | 0.39 | 1.6 | 0.78 | 0.78 | 0.78 | 12 | 0.78 | 200 | > 200 | 
C[C@@H]1CN2c3c(cc4c(N5C(=O)OC[C@@H]5c5ccncc5)noc4c3F)CC3(C(=O)NC(=O)NC3=O)[C@H]2[C@H](C)O1 [Example 58, (2R,4S,4aS)-11-fluoro-2,4-dimethyl-8-((S)-2-oxo-4-(pyridin-4-yl)oxazolidin-3-yl)-2,4,4a,6-tetrahydro-1H,1′H-spiro[isoxazolo[4,5-g][1,4]oxazino[4,3-a]quinoline-5,5′-pyrimidine]-2′,4′,6′(3′H)-trione] | 50 µM | 1500 | 12 | 50 | 50 | 25 | 12 | > 200 | 6.2 | > 200 | > 200 | 
C[C@@H]1CN2c3c(cc4c(N5C(=O)OC[C@@H]5C#N)noc4c3F)CC3(C(=O)NC(=O)NC3=O)[C@H]2[C@H](C)O1 [Example 41, (4S)-3-[(2R,4S,4aS)-11-Fluoro-2,4-dimethyl-2′,4′,6′-trioxo-1,1′,2,3′,4,4′,4a,6′-octahydro-2′H,6H-spiro[1,4-oxazino[4,3-a][1,2]oxazolo[4,5-g]quinoline-5,5′-pyrimidin]-8-yl]-2-oxo-1,3-oxazolidine-4-carbonitrile] | 1.6 µM | 460 | 0.78 | 1.6 | 0.39 | 0.78 | 0.78 | 25 | 0.78 | > 200 | > 200 | 
C[C@@H]1CN2c3c(cc4c(N5CCOC5=O)noc4c3F)CC3(C(=O)NC(=O)NC3=O)[C@H]2[C@H](C)O1 [Example 1, (2R,4S,4aS)-11-Fluoro-2,4-dimethyl-8-(2-oxo-1,3-oxazolidin-3-yl)-1,2,4,4a-tetrahydro-2′H,6H-spiro[1,4-oxazino[4,3-a][1,2]oxazolo[4,5-g]quinoline-5,5′-pyrimidine]-2′,4′,6′(1′H,3′H)-trione] | 3.1 µM | 1300 | 0.39 | 0.78 | 0.78 | 0.78 | 0.39 | 50 | 0.78 | > 200 | > 200 | 
C[C@@H]1CN2c3c(cc4c(N5C[C@H](C=NO)OC5=O)noc4c3F)CC3(C(=O)NC(=O)NC3=O)[C@H]2[C@H](C)O1 [Example 40, (2R,4S,4aS)-11-Fluoro-8-{(5R)-5-[(hydroxyimino)methyl]-2-oxo-1,3-oxazolidin-3-yl}-2,4-dimethyl-1,2,4,4a-tetrahydro-2′H,6H-spiro[1,4-oxazino[4,3a][1,2]oxazolo[4,5-g]quinoline-5,5′-pyrimidine]-2′,4′,6′(1′H,3′H)-trione] | 3.1 µM | 380 | 0.78 | 1.6 | 0.39 | 0.78 | 0.28 | 12 | 0.39 | > 200 | > 200 | 
